Experimental data as given in PubChem BioAssay (NCI).
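Five compound concentrations were applied to cells in 96-well plates for 48 hours; endpoints were derived by simple linear interpolation of the resulting dose-response curve. TGI is the concentration that stops growth completely.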

Columns and labels:
Assay in all cases: NCI anticancer screen, dose series, 48 h
DMS 273 small cell lung = test system: DMS 273 small cell lung
EKVX NSCLC = test system: EKVX NSCLC
HL-60(TB) leukemia = test system: HL-60(TB) leukemia
LXFL 529 NSCLC = test system: LXFL 529 NSCLC
MALME-3M melanoma = test system: MALME-3M melanoma
SF-268 CNS = test system: SF-268 CNS
SK-MEL-5 melanoma = test system: SK-MEL-5 melanoma
U251 CNS = test system: U251 CNS
UACC-62 melanoma = test system: UACC-62 melanoma
CAKI-1 renal = test system: CAKI-1 renal
UACC-257 melanoma = test system: UACC-257 melanoma

Row | Compound | TGI (DMS 273 small cell lung) [µM] | TGI (EKVX NSCLC) [µM] | TGI (HL-60(TB) leukemia) [µM] | TGI (LXFL 529 NSCLC) [µM] | TGI (MALME-3M melanoma) [µM] | TGI (SF-268 CNS) [µM] | TGI (SK-MEL-5 melanoma) [µM] | TGI (U251 CNS) [µM] | TGI (UACC-62 melanoma) [µM] | TGI (CAKI-1 renal) [µM] | TGI (UACC-257 melanoma) [µM]
1 | COc1cc(/C=C\c2ccc(SC)cc2)cc(OC)c1OC | 1.95 | > 100 | 0.463 | 5.38 | > 100 | 56.1 | 2.72 | 1.11 | > 100 |  | 
2 | C[Si](C)(C)C#C[I+]c1ccccc1 | 44.5 | > 100 | 61.3 | 95.2 | > 100 | > 100 | > 100 | > 100 | > 100 | > 100 | > 100
3 | CC1(c2cccc(C3CCC4(C=CC3=O)OCCO4)c2)OCCO1 (configuration not stated) | 22.9 | 37.5 | 20 | 3.97 | 10.9 | 36 | 28 | 33.8 | 18.1 | 21.1 | 21.5
4 | OC(Cn1cncn1)(Cn1cncn1)c1ccc(Cl)cc1Cl | > 100 |  | > 100 | > 100 | > 100 | > 100 | > 100 | > 100 | > 100 | > 100 | > 100
5 | CC(=O)OC1COC(N2C(=O)C(=O)c3cc(Br)c([N+](=O)[O-])cc32)C(OC(C)=O)C1OC(C)=O (configuration not stated) | > 100 | > 100 | > 100 | > 100 | > 100 | > 100 | > 100 | > 100 | > 100 | > 100 | > 100
